Assay results: the supplement of paper PMC4862054

What was measured:
Conditions in all cases: incubation time: 72 h
[1] = test system: MDA-MB-436; test: drug sensitivity score (DSS), CellTiter-Glo (DSS (AUC-based score)); higher = stronger drug effect (viability inhibition or cytotoxicity); extreme values may be limits of the assay
Procedure, shortened: (§1)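 Compound was dispensed into 384-well plates at 5 concentrations in 10-fold steps spanning a 10,000-fold range chosen for each compound, and 20 µl of breast cancer cell suspension was added before 72 h of incubation. CellTox Green fluorescence was read at 485/520 nm, followed by CellTiter-Glo luminescence after 10 min at room temperature. Values on each plate were normalised to 0.1 % DMSO and a positive kill control. The drug sensitivity score came from the area under the fitted dose-response curve.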

[2] = test system: BT-549; test: as above
Procedure, shortened: as §1

[3] = test system: HDQ-P1; test: as above
Procedure, shortened: as §1

[4] = test system: Hs578T; test: as above
Procedure, shortened: as §1

[5] = test system: CAL-85-1; test: as above
Procedure, shortened: as §1

[6] = test system: MDA-MB-453; test: as above
Procedure, shortened: as §1

[7] = test system: HCC1143; test: as above
Procedure, shortened: as §1

[8] = test system: MDA-MB-468; test: as above
Procedure, shortened: as §1

[9] = test system: CAL-120; test: as above
Procedure, shortened: as §1

[10] = test system: MFM-223; test: as above
Procedure, shortened: as §1

[11] = test system: HCC1937; test: as above
Procedure, shortened: as §1

[12] = test system: HCC1599; test: as above
Procedure, shortened: as §1

[13] = test system: CAL-148; test: as above
Procedure, shortened: as §1

[14] = test system: MCF-10A; test: as above
Procedure, shortened: as §1

[15] = test system: MDA-MB-231; test: as above
Procedure, shortened: as §1

[16] = test system: BT-549; test: normalised viability (% of control), CellTiter-Blue; higher = more viable cells (about 100 = DMSO control)
Procedure, shortened: (§2)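 Vehicle (100) and a positive kill control (0) anchored the normalisation of each plate, and Z'-factor was used for quality control. Breast cancer cell lines in 20 µl suspension were incubated 72 h over compound in 5 µl medium in 384-well plates, followed by CellTiter-Blue at 560/590 nm. The value is normalised viability at a single listed concentration of the series.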

[17] = test system: CAL-85-1; test: as above
Procedure, shortened: as §2

[18] = test system: MDA-MB-453; test: as above
Procedure, shortened: as §2

[19] = test system: SK-BR-3; test: as above
Procedure, shortened: as §2

[20] = test system: CAL-51; test: as above
Procedure, shortened: as §2

[21] = test system: MDA-MB-468; test: as above
Procedure, shortened: as §2

[22] = test system: MFM-223; test: as above
Procedure, shortened: as §2

[23] = test system: BT-474; test: as above
Procedure, shortened: as §2

[24] = test system: CAL-148; test: as above
Procedure, shortened: as §2

[25] = test system: MDA-MB-231; test: as above
Procedure, shortened: as §2

CNC(=O)c1ccccc1Sc1ccc2c(/C=C/c3ccccn3)n[nH]c2c1 [Axitinib]
Conditions | drug sensitivity score
[1] | 1.91
[2] | 1.06
[3] | 1.23
[4] | 0
[5] | 0
[6] | 0
[7] | 0
[8] | 4.94
[9] | 1.6
[10] | 8.4
[11] | 0
[12] | 2.21
[13] | 0
[14] | 0
[15] | 0

normalised viability [%]
Conditions | [16] | [17] | [18] | [19] | [20] | [21] | [22] | [23] | [24] | [25]
3 nM | – | 93 | 103 | – | 107 | – | – | – | 83 | –
10 nM | 96.6 | – | – | 91 | – | 108 | 86.7 | 112 | – | 102
30 nM | – | 84 | 108 | – | 102 | – | – | – | 95.3 | –
100 nM | – | 104 | 97.2 | – | 98.2 | – | – | – | 90.1 | –
1000 nM | 92.6 | – | – | 88.9 | – | 99.4 | 47.6 | 105 | – | 88.7
10000 nM | 42.5 | – | – | 63.8 | – | 43.8 | 47.7 | 76.4 | – | 72.1

CC(O)(CS(=O)(=O)c1ccc(F)cc1)C(=O)Nc1ccc(C#N)c(C(F)(F)F)c1 (stereo not given) [Bicalutamide]
Conditions | drug sensitivity score
[1] | 0
[2] | 0
[3] | 0
[4] | 0
[5] | 0
[6] | 0.186
[7] | 0
[8] | 0
[9] | 0
[10] | 0
[11] | 0
[12] | 0
[13] | 0
[14] | 0
[15] | 0

normalised viability [%]
Conditions | [16] | [17] | [18] | [19] | [20] | [21] | [22] | [23] | [24] | [25]
3 nM | – | 93.7 | 114 | – | 116 | – | – | – | 101 | –
10 nM | 87 | – | – | 104 | – | 118 | 89.2 | 119 | – | 103
30 nM | – | 97.3 | 89.2 | – | 109 | – | – | – | 100 | –
100 nM | – | 104 | 95.9 | – | 99.1 | – | – | – | 102 | –
1000 nM | 94.3 | – | – | 107 | – | 93.9 | 91.8 | 109 | – | 122
10000 nM | 87.2 | – | – | 114 | – | 91.3 | 94 | 138 | – | 122

CCNC(=O)CCC/C=C\C[C@@H]1[C@@H](/C=C/[C@@H](O)CCc2ccccc2)[C@H](O)C[C@@H]1O [Bimatoprost]
Conditions | drug sensitivity score
[1] | 0
[2] | 0
[3] | 0
[4] | 0
[5] | 0
[6] | 0
[7] | 0
[8] | 0
[9] | 0
[10] | 0
[11] | 0
[12] | 0
[13] | 0
[14] | 0
[15] | 0

normalised viability [%]
Conditions | [16] | [17] | [18] | [19] | [20] | [21] | [22] | [23] | [24] | [25]
1.65 nM | – | 97.1 | 116 | – | 124 | – | – | – | 92.6 | –
5.5 nM | 102 | – | – | 98.7 | – | 97.1 | 112 | 112 | – | 100
16.5 nM | – | 92.5 | 91.7 | – | 114 | – | – | – | 90.9 | –
55 nM | – | 101 | 92.5 | – | 112 | – | – | – | 95.2 | –
550 nM | 109 | – | – | 110 | – | 123 | 104 | 106 | – | 97.2
5500 nM | 85.5 | – | – | 97 | – | 111 | 96.7 | 127 | – | 97.6

COc1cc(Nc2c(C#N)cnc3cc(OCCCN4CCN(C)CC4)c(OC)cc23)c(Cl)cc1Cl [Bosutinib]
Conditions | drug sensitivity score
[1] | 7.31
[2] | 4.99
[3] | 11.3
[4] | 0.947
[5] | 9.16
[6] | 5.47
[7] | 3.67
[8] | 8.1
[9] | 5.53
[10] | 4.34
[11] | 7.57
[12] | 5.58
[13] | 1.7
[14] | 15.1
[15] | 8.52

normalised viability [%]
Conditions | [16] | [17] | [18] | [19] | [20] | [21] | [22] | [23] | [24] | [25]
3 nM | – | 92.2 | 120 | – | 115 | – | – | – | 77.2 | –
10 nM | 91.9 | – | – | 99 | – | 104 | 100 | 113 | – | 98.9
30 nM | – | 111 | 107 | – | 114 | – | – | – | 92.3 | –
100 nM | – | 96.8 | 105 | – | 120 | – | – | – | 87.6 | –
1000 nM | 95.4 | – | – | 86.3 | – | 95.2 | 80.8 | 94.6 | – | 142
10000 nM | 6.38 | – | – | 1.28 | – | 14.5 | 36.8 | 6.35 | – | 2.42
